Results on nine compounds are retold here after PubChem BioAssay (NCI).

Where “and” joins values, the source holds several entries; their conditions need not be identical. Equal values may be shown once.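 A five-concentration, 48-hour dose response in 96-well plates underlies each endpoint, interpolated linearly between surrounding concentrations. At the GI50, growth is halved. TGI denotes the concentration required for complete inhibition of growth.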 Some results are limits rather than exact numbers.

What all share (assay): NCI anticancer screen, dose series, 48 h
For experiment [1], the system named is OVCAR-8 ovarian.
Experiment [2] has as its system CAKI-1 renal.
For experiment [3], the system named is HCC-2998 colon.
The test system of experiment [4] is LOX IMVI melanoma.
Experiment [5] concerns SR leukemia.
Experiment [6] concerns RXF 393 renal.
For experiment [7], the system named is COLO 205 colon.
In experiment [8] the test system is EKVX NSCLC.
Experiment [9] relates to CCRF-CEM leukemia.
The test system of experiment [10] is UACC-257 melanoma.

On to `Cc1ccc2nc(-c3ccc(N(C)C)c(Br)c3)cn2c1`, for which the GI50 in experiment [1] was 17.4 µM; in experiment [2], greater than 100 µM; in experiment [3] it was greater than 100 µM; in experiment [4], 35.2 µM; in experiment [5] it was 1.46 µM; in [6], greater than 100 µM. In addition, the GI50 in [7] is greater than 100 µM; in experiment [8], greater than 100 µM; in experiment [9], 6.52 µM; in [10] it was greater than 100 µM. Moreover, the TGI in [1], in [2], in experiment [3], in [4], in experiment [5] and in experiment [6] was greater than 100 µM in each case. Besides, the TGI in experiment [7], in experiment [8], in experiment [9] and in experiment [10] was greater than 100 µM throughout.

On to `Cc1[nH]nc(C(=O)n2nc(N)c3ccccc32)c1[N+](=O)[O-]`, for which the GI50 in [1] is greater than 100 µM; in experiment [2], greater than 100 µM; in experiment [3], greater than 100 µM; in [4], greater than 39.5 µM; in experiment [5], 26.2 µM; in experiment [6], greater than 100 µM. Moreover, the GI50 in experiment [7] was greater than 100 µM; in [8], greater than 100 µM; in experiment [9] it was 32.2 µM; in experiment [10], greater than 100 µM. The TGI in experiment [1], in [2], in experiment [3], in experiment [4], in [5] and in [6] was greater than 100 µM in each case. The TGI in experiment [7], in experiment [8], in experiment [9] and in [10] was greater than 100 µM throughout.

For the compound `Fc1cc2[nH]ncc2c2c3c(c(-c4cn[nH]c4C(F)(F)F)nc12)C1CCC3C1` (stereo not drawn), the GI50 in experiment [1] is 1.21 µM; in experiment [2], 0.602 µM; in experiment [3] it was 1.38 µM; in [4], 0.818 µM; in [5], 0.645 µM; in [6], 0.345 µM. For the same compound, the GI50 in experiment [7] is 0.874 µM; in experiment [8], 1.39 µM; in [9] it was 1.23 µM; in experiment [10], 1.31 µM. Further, the TGI in experiment [1] was 6.74 µM; in experiment [2], 3.51 µM; in experiment [3], 5.57 µM; in experiment [4] it was 3.33 µM; in experiment [5], greater than 50 µM; in experiment [6], 1.12 µM. Further, the TGI in experiment [7] is 2.24 µM; in experiment [8], 5.91 µM; in [9] it was greater than 50 µM; in experiment [10] it was 4.51 µM.

Regarding `COc1ccc(N2C(=O)[C@H]3CC(C)c4c([nH]c5ccccc45)[C@H]3C2=O)cc1` (stereo partly drawn), the TGI in experiment [1] is 55.9 µM; in experiment [2] it was 27.3 µM; in experiment [3] it was 69 µM; in experiment [4], 63.8 µM; in experiment [5] it was greater than 100 µM; in experiment [6] it was 9.75 µM. For the same compound, the TGI in experiment [7] was 9.11 µM; in experiment [8] it was greater than 95 µM; in [9] it was 46.9 µM; in experiment [10], greater than 93.9 µM.

In the case of `C/C=C1\NC(=O)[C@H]2CSSCCC=C[C@H](CC(=O)N[C@H](C(C)C)C(=O)N2)OC(=O)[C@H](C(C)C)NC1=O`, the GI50 in experiment [1] was less than 0.01 µM; in [2], less than 0.0339 µM; in experiment [3], 0.000813 µM; in experiment [4], < 0.01 µM and 0.000122 µM; in experiment [5], < 0.01 µM and 0.000119 µM; in [6], less than 0.01 µM. The GI50 was < 0.01 µM and 0.000172 µM in [7]; less than 0.01 µM in experiment [8]; less than 0.01 µM in experiment [9]; < 0.01 µM and 0.000137 µM in [10]. Also, the TGI is 0.0668 µM and 0.072 µM and 0.154 µM in [1]; 0.0772 µM and 0.0244 µM and < 0.0104 µM in experiment [2]; < 0.01 µM and 0.00448 µM in experiment [3]; < 0.01 µM and 0.00104 µM in experiment [4]; 0.221 µM and 0.0286 µM and 0.047 µM in experiment [5]; 0.0101 µM and 0.00253 µM in experiment [6]. In addition, the TGI is < 0.01 µM and 0.000811 µM in experiment [7]; 0.273 µM and 0.0534 µM and 0.102 µM in [9].

`CC[C@]1(O)C(=O)OCc2c1cc1n(c2=O)Cc2cc3c(N)cccc3nc2-1`: the TGI in experiment [1], in experiment [2], in [3], in [4], in [5] and in [6] was greater than 100 µM throughout. Besides, the TGI in experiment [7], in [8], in experiment [9] and in experiment [10] was greater than 100 µM in each case.

Consider `COc1ccc2cc(-c3c(-c4ccncc4)nc(-c4ccc(S(C)(=O)=O)cc4C)n3C)ccc2c1`, for which the GI50 is 9.01 µM in [1]; 8.73 µM in experiment [2]; 12 µM in experiment [3]; 9.01 µM in experiment [4]; 13 µM in experiment [5]; 3.99 µM in experiment [6]. For the same compound, the GI50 in experiment [7] is 8.25 µM; in experiment [8] it was 7.45 µM; in experiment [9], 8.46 µM; in experiment [10], 7.75 µM. For the same compound, the TGI was greater than 25 µM in experiment [1]; greater than 25 µM in [2]; greater than 25 µM in experiment [3]; greater than 25 µM in experiment [4]; greater than 25 µM in experiment [5]; 20.7 µM in [6]. Further, the TGI in [7] is greater than 20.1 µM; in experiment [8] it was greater than 25 µM; in experiment [9], greater than 25 µM; in experiment [10], greater than 25 µM.

Take `N#CCCN(CCC#N)c1ccc(C(Sc2ccccc2)C(NC(=O)c2cc([N+](=O)[O-])ccc2Cl)C(=O)Sc2ccccc2)cc1` (stereo not drawn): the GI50 in experiment [1] is 1.63 µM; in experiment [6] it was 0.415 µM; in experiment [7], 2.9 µM; in [8] it was 5.74 µM; in experiment [10], 3.06 µM. In addition, the TGI was 4.95 µM and 3.69 µM in experiment [1]; 5.71 µM and 6.5 µM in [2]; 19.7 µM in experiment [3]; 5.71 µM in experiment [4]; 3.9 µM in experiment [5]; 5.81 µM and 3.28 µM in [6]. Besides, the TGI in experiment [7] is 6.75 µM and 7.77 µM; in [8], 9.96 µM and 25.5 µM; in [9], 0.765 µM and 0.479 µM; in experiment [10], 14.3 µM.

For the compound `COC(=O)c1ccccc1NC(=O)C(=O)NNC(=O)c1ccncc1`, the TGI in experiment [1], in [2], in experiment [3], in experiment [4], in experiment [5] and in [6] was greater than 100 µM each time. The TGI in experiment [7], in [8], in [9] and in experiment [10] was greater than 100 µM each time.
